In the NIST ThermoML archive (doi:10.1016/j.jct.2012.05.023):
± gives the expanded uncertainty stated by the source.

Experiments:
[1] = 101.3 kPa, Liquid; for speed of sound: Sing-around technique in a fixed-path interferometer; for mass density: Vibrating tube method
[2] = refractive index (Na D-line) (dimensionless); settings: 101.33 kPa, Liquid, Standard Abbe refractometry
[3] = xn = mol fraction of the nth substance listed; settings: 101.3 kPa, Liquid, x2 = 0; for speed of sound: Sing-around technique in a fixed-path interferometer; for mass density: Vibrating tube method
[4] = refractive index (Na D-line) (dimensionless); xn = mol fraction of the nth substance listed; settings: 101.3 kPa, Liquid, Standard Abbe refractometry, x2 = 0

| SMILES | speed of sound ([1]; 293.15 K) [m/s] | mass density ([1]; 293.15 K) [kg/m3] | speed of sound ([1]; 303.15 K) [m/s] | mass density ([1]; 303.15 K) [kg/m3] | speed of sound ([1]; 313.15 K) [m/s] | mass density ([1]; 313.15 K) [kg/m3] | speed of sound ([1]; 323.15 K) [m/s] | mass density ([1]; 323.15 K) [kg/m3] | speed of sound ([1]; 333.15 K) [m/s] | mass density ([1]; 333.15 K) [kg/m3] | speed of sound ([1]; 343.15 K) [m/s] | mass density ([1]; 343.15 K) [kg/m3] | refractive index ([2]; 293.15 K) | refractive index ([2]; 303.15 K) | refractive index ([2]; 313.15 K) | refractive index ([2]; 323.15 K) | refractive index ([2]; 333.15 K) | refractive index ([2]; 343.15 K) | other results |
| --- | --- | --- | --- | --- | --- | --- | --- | --- | --- | --- | --- | --- | --- | --- | --- | --- | --- | --- | --- |
| c1ccc2c(c1)CCCC2 [1,2,3,4-tetrahydronaphthalene] | 1489.5 ± 1.3 | 969.52 ± 0.23 | 1450.1 ± 1.2 | 961.59 ± 0.23 | 1411.5 ± 1.2 | 953.66 ± 0.23 | 1373.6 ± 1.2 | 945.72 ± 0.23 | 1336.4 ± 1.2 | 937.77 ± 0.23 | 1299.8 ± 1.2 | 929.8 ± 0.23 | 1.54155 ± 0.00037 | 1.53687 ± 0.00037 | 1.53216 ± 0.00037 | 1.52752 ± 0.00037 | 1.52274 ± 0.00037 | 1.51795 ± 0.00037 | – |
| CCCCCCCCCCCC [dodecane] | 1297.9 ± 1.2 | 748.92 ± 0.24 | 1259.5 ± 1.2 | 741.66 ± 0.24 | 1221.6 ± 1.2 | 734.38 ± 0.24 | 1184.4 ± 1.2 | 727.07 ± 0.24 | 1147.8 ± 1.2 | 719.73 ± 0.24 | 1111.8 ± 1.2 | 712.34 ± 0.25 | 1.42218 ± 0.00037 | 1.41784 ± 0.00037 | 1.41346 ± 0.00037 | 1.40914 ± 0.00037 | 1.40479 ± 0.00037 | 1.40018 ± 0.00037 | – |
| CCCCCCCCCCCC [dodecane] + c1ccc2c(c1)CCCC2 | – | – | – | – | – | – | – | – | – | – | – | – | – | – | – | – | – | – | speed of sound ([3]; 293.15 K): 1297.9 ± 1.2 m/s; mass density ([3]; 293.15 K): 748.92 ± 0.24 kg/m3; speed of sound ([3]; 303.15 K): 1259.5 ± 1.2 m/s; mass density ([3]; 303.15 K): 741.66 ± 0.24 kg/m3; speed of sound ([3]; 313.15 K): 1221.6 ± 1.2 m/s; mass density ([3]; 313.15 K): 734.38 ± 0.24 kg/m3; speed of sound ([3]; 323.15 K): 1184.4 ± 1.2 m/s; mass density ([3]; 323.15 K): 727.07 ± 0.24 kg/m3; speed of sound ([3]; 333.15 K): 1147.8 ± 1.2 m/s; mass density ([3]; 333.15 K): 719.73 ± 0.24 kg/m3; speed of sound ([3]; 343.15 K): 1111.8 ± 1.2 m/s; mass density ([3]; 343.15 K): 712.34 ± 0.25 kg/m3; refractive index ([4]; 293.15 K): 1.42218 ± 0.00037; refractive index ([4]; 303.15 K): 1.41784 ± 0.00037; refractive index ([4]; 313.15 K): 1.41346 ± 0.00037; refractive index ([4]; 323.15 K): 1.40914 ± 0.00037; refractive index ([4]; 333.15 K): 1.40479 ± 0.00037; refractive index ([4]; 343.15 K): 1.40018 ± 0.00037 |
